From patent US20090123507A1, “Metal Oxide Nanoparticles Coated With Specific N-Acylaminomethylene Phosphonates” (priority 2005, published 2009)

Tests used:
E. coli (ATCC 10536) = assay: European Standard Assay method EN 1040, antimicrobial bioassay; format: cell-based; settings: logarithmic scale (5 = factor of 100000); for Bioassay data E. coli 5 min: 5 min incubation; for Bioassay data E. coli 30 min: 30 min incubation
Procedure: (§1) The titanium dioxide particles coated with the appropriate phosphonates were subsequently assayed according the European Standard Assay method EN 1040 against two representative microbes:
(§2) S. aureaus (ATCC 6538) and E. coli (ATCC 10536).
(§3) Both microbes were incubated with the coated nanoparticles together with their corresponding free phosphonates within the same apparent concentrations for 5 and 30 minutes, respectively.
(§4) The data are given in a logarithmic scale which means that the number 5 indicates an increase of activity by a factor of 100000.

S. aureus (ATCC 6538) = assay: as above; format: cell-based; settings: logarithmic scale (5 = factor of 100000); for Bioassay data S. aureus 5 min: 5 min incubation; for Bioassay data S. aureus 30 min: 30 min incubation
Procedure: as §1, §2, §3, §4

CCOP(=O)(CCNC(=O)CCC(=O)O)OCC [Compound M]
<1: Bioassay data E. coli 5 min (E. coli (ATCC 10536)) | Bioassay data E. coli 30 min (E. coli (ATCC 10536)) | Bioassay data S. aureus 5 min (S. aureus (ATCC 6538)) | Bioassay data S. aureus 30 min (S. aureus (ATCC 6538))

CCOP(=O)(CCNC(=O)CCCCCN=[N+]=[N-])OCC [Compound L]
<1: Bioassay data E. coli 5 min (E. coli (ATCC 10536)) | Bioassay data E. coli 30 min (E. coli (ATCC 10536)) | Bioassay data S. aureus 5 min (S. aureus (ATCC 6538)) | Bioassay data S. aureus 30 min (S. aureus (ATCC 6538))

CCOP(=O)(CCCCNC(=O)OCc1ccccc1)OCC [Compound N]
<1: Bioassay data E. coli 5 min (E. coli (ATCC 10536)) | Bioassay data E. coli 30 min (E. coli (ATCC 10536)) | Bioassay data S. aureus 5 min (S. aureus (ATCC 6538)) | Bioassay data S. aureus 30 min (S. aureus (ATCC 6538))

CCCCCCCCCCCCCCCCCC(=O)NCCP(=O)(OCC)OCC [Compound J]
<1: Bioassay data E. coli 5 min (E. coli (ATCC 10536)) | Bioassay data E. coli 30 min (E. coli (ATCC 10536)) | Bioassay data S. aureus 5 min (S. aureus (ATCC 6538)) | Bioassay data S. aureus 30 min (S. aureus (ATCC 6538))

CCCCCCCC/C=C/CCCCCCCC(=O)NCCP(=O)(OCC)OCC [Compound K]
<1: Bioassay data E. coli 5 min (E. coli (ATCC 10536)) | Bioassay data E. coli 30 min (E. coli (ATCC 10536)) | Bioassay data S. aureus 5 min (S. aureus (ATCC 6538)) | Bioassay data S. aureus 30 min (S. aureus (ATCC 6538))

CCOP(=O)(CCC#N)OCC [Compound A]
<1: Bioassay data E. coli 5 min (E. coli (ATCC 10536)) | Bioassay data E. coli 30 min (E. coli (ATCC 10536)) | Bioassay data S. aureus 5 min (S. aureus (ATCC 6538)) | Bioassay data S. aureus 30 min (S. aureus (ATCC 6538))
